The source made the active and inactive calls.
What was measured:
INS1 = assay: beta cell apoptosis inhibitors, cytokine rescue, dose response, luminescence, retest (AID 449756); type: functional, cell-based; details: Rattus norvegicus;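 note: cell death triggered by IL-1 beta plus TNF-alpha plus IFN-gamma mixture; protective hits raise ATP signal compared with cytokine alone wells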
[1] = cytotoxicity in HEK-293T cells, dose response, cytotoxicity control for BCR NF-kB inhibitor project, luminescence, B-cell screen hits (AID 489021); type: functional, cell-based;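 note: HEK-293T cells carrying an NF-kB luciferase reporter; cells exposed to compound for about 14 hours before viability readout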
[2] = target: G-protein coupled receptor 55 (Homo sapiens, UniProt Q9Y2T6); assay: GPR55 agonists via beta-arrestin recruitment, primary screen, imaging, U2OS cells, beta-arrestin-GFP redistribution (AID 1961); type: functional
[3] = target: T1, High affinity choline transporter 1 (Homo sapiens, UniProt Q9GZV3); assay: CHT inhibitors, dose response, cell-based, 5-point CRC, membrane potential dye (AID 504840); type: functional
T1 sequence (Q9GZV3 whole entry): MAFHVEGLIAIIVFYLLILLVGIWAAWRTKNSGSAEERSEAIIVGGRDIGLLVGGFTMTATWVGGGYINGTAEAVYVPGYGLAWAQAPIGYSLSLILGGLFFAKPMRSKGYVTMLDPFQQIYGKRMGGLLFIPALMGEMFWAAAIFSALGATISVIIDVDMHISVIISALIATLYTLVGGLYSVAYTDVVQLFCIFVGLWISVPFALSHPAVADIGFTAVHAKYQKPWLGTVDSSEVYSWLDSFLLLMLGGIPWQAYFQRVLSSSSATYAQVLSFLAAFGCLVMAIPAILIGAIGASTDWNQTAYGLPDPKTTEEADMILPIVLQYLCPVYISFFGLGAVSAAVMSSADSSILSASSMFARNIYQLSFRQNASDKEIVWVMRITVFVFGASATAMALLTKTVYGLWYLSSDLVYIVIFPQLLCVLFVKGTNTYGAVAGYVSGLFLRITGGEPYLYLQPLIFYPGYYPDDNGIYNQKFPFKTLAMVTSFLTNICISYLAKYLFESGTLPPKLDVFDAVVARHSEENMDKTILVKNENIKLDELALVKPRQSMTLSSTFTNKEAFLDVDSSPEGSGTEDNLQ

Cytochrome P450 2D6 [4] = target: T2, Cytochrome P450 2D6 (Homo sapiens, UniProt P10635);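 note: CYP2D6 member of a cytochrome P450 panel assay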
[5] = A Cell Based Secondary Assay To Explore Cytotoxicity of Compounds that Sensitize Mycobacterium Tuberculosis to Beta-Lactam Antibiotics.; type: functional
Aminopeptidase N = target: T3, Aminopeptidase N (Plasmodium falciparum FcB1/Columbia, UniProt O96935); assay: P. falciparum M1AAP inhibitors, biochemical, fluorogenic H-Leu-NHMec substrate, 1536-well (AID 1445); parameters: species or system Plasmodium falciparum 3D7, 3D7
T3 sequence (O96935 whole entry): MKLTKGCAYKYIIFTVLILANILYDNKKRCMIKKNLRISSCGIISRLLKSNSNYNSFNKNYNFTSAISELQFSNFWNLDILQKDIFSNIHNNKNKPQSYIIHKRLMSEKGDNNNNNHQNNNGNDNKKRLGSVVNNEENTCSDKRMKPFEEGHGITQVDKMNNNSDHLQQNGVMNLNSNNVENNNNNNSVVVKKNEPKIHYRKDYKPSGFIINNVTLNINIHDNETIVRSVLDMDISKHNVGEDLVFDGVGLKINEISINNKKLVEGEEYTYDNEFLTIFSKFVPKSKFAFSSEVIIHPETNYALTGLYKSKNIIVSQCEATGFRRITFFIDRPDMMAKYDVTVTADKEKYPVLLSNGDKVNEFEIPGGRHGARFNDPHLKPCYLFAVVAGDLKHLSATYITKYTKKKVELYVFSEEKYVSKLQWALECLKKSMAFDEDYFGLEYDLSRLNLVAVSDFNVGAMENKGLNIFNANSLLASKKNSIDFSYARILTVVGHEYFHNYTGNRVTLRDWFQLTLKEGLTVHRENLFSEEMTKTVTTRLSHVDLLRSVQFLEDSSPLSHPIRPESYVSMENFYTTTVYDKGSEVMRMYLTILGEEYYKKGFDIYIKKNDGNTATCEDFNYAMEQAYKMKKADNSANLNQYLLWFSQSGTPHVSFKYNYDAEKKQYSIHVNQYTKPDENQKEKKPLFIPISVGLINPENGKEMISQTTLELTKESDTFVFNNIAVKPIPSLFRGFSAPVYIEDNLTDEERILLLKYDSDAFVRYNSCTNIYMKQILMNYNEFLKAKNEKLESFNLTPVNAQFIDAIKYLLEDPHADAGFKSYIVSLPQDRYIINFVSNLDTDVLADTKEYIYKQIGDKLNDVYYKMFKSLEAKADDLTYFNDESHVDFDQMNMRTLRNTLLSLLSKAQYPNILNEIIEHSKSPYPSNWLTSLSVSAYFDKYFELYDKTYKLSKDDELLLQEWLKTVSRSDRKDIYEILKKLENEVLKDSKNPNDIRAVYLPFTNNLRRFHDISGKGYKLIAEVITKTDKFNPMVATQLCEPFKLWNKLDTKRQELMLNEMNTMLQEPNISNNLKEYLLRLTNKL

Cytochrome P450 2D6 [6] = target: T2, Cytochrome P450 2D6; remark: listed apart in the source
Cytochrome P450 2C9 = Cytochrome P450 2C9 (Homo sapiens, UniProt P11712)
Cytochrome P450 2C19 = Cytochrome P450 2C19 (Homo sapiens, UniProt P33261); assay: Cytochrome panel assay with activity outcomes. Panel member name: p450-cyp2c19 Compounds with AC50 equal or less than 10 uM are considered active; type: functional; details: read-out: AC50
HEK293 [7] = assay: cells; type: functional, cell-based; details: Homo sapiens
[8] = control 3'UTR Renilla luciferase suppression, dose response, counter-screen for Shn3 inhibitor project, cell-based, Clone20-Shn3RL, cherry-picked (AID 624133); type: functional
[9] = HepG2 cell cytotoxicity, dose response, cytotoxicity control for Shn3 inhibitor project, CellTiter-Glo, cherry-picked (AID 624134); type: functional, cell-based
HEK293 [10] = assay: NOD1 signaling inhibitors, primary screen, cell-based, luminescence, uHTS (AID 1578); type: functional; details: Homo sapiens
HEK293 [11] = assay: cells; type: functional, cell-based; details: Homo sapiens; remark: listed apart in the source
[12] = Shn3 3'UTR reporter inhibitors, dose response, cell-based, Clone20 osteoblasts, firefly luciferase, cherry-picked (AID 624132); type: functional;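 note: firefly luciferase luminescence from reporter carrying the Shn3 3'UTR in osteoblasts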
HEK293 [13] = assay: NOD2 signaling inhibitors in MDP-stimulated cells, cell-based, uHTS, luminescence (AID 2001); type: functional; details: Homo sapiens
Fatty acid synthase [14] = target: T4, Fatty acid synthase (Homo sapiens, UniProt P49327); assay: FAS thioesterase domain inhibitors, dose response, biochemical, endpoint fluorescence intensity, uHTS hits (AID 624327); type: functional;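 note: fluorescence from hydrolysis of an O-methyl fluorescein acyl ester substrate by the enzyme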
Fatty acid synthase [15] = target: T4, Fatty acid synthase; assay: FAS thioesterase domain inhibitors, dose response, biochemical, kinetic fluorescence intensity (AID 624326); type: functional;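 note: rate of fluorescence rise from hydrolysis of a fluorogenic O-methyl fluorescein ester substrate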
[16] = cytotoxicity in HEK-293T cells, dose response, cytotoxicity control for TCR NF-kB inhibitor project, luminescence, T-cell screen hits (AID 489026); type: functional, cell-based;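 note: cells exposed to compound about 14 hours before the viability readout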
[17] = Luminescence Cell-Based Dose Retest to Confirm Inhibitors of Cancer Stem Cells. [Related pubchem assays (depositor defined):AID2717, AID2721]; type: functional; details: Homo sapiens
Streptococcus = assay: Group A Streptococcus viability loss, dose response, counter-screen for streptokinase expression inhibitor project, luminescence, BacTiterGlo (AID 1915); type: functional, organism-based;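 note: potency for reduction of bacterial viability or growth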
[18] = test system: Streptococcus sp. 'group A'; assay: growth inhibition of control SK(-) GAS strain, dose response, counter-screen for streptokinase expression inhibitor project, luminescence, kanamycin, BacTiterGlo, confirmation (AID 1900); type: functional, organism-based
Streptokinase A = target: T5, Streptokinase A (Streptococcus pyogenes serotype M1, UniProt P10520); assay: S. pyogenes streptokinase expression inhibitors, potency, dose response, plasminogen activation absorbance, OD405 (AID 1914); type: functional, Streptococcus pyogenes M1 GAS;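 note: secreted streptokinase activity via plasminogen activation per viability signal from cell pellet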
T5 sequence (P10520 whole entry): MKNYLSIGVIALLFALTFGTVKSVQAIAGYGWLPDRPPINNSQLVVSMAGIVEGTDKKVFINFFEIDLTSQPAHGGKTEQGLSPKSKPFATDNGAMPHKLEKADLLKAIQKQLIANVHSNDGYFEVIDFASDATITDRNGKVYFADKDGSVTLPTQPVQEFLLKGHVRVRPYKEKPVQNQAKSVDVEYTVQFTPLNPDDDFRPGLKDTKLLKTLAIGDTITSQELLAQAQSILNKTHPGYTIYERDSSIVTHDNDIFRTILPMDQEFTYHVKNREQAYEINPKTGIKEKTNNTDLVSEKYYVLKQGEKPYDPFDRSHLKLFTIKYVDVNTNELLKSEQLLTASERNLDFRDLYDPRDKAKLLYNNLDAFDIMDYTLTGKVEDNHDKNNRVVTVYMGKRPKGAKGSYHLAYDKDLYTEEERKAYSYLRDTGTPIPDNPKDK

[19] = target: T6, DNA repair protein RAD52 homolog (Homo sapiens, UniProt P43351); type: functional, biochemical
T6 sequence (P43351 whole entry): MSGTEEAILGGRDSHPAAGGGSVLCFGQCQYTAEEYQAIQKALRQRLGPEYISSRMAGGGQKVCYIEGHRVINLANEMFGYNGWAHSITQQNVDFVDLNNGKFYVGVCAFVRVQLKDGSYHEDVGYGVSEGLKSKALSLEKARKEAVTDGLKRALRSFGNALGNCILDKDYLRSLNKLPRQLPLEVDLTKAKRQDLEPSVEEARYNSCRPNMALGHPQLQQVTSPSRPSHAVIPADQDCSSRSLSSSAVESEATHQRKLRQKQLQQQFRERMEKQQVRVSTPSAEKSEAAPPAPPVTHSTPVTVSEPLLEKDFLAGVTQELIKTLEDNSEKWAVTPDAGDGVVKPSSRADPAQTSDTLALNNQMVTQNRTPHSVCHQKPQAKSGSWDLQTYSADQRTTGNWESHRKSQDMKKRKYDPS

[20] = THP-1 cell cytotoxicity, dose response, cytotoxicity control for non-replicating M. tuberculosis project (AID 489025); type: functional
[21] = inhibitors of intracellular T. cruzi replication, confirmation, NIH3T3 host cells, beta-gal luminescence (AID 2044); type: functional, cell-based;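 note: intracellular parasites grown in NIH/3T3 mouse fibroblasts as host cells; luminescent beta-galactosidase reporter signal from transgenic T. cruzi replicating inside host cells; inhibitors lower the luminescence signal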
[22] = cytotoxicity toward NIH3T3 fibroblasts, dose response, counter-screen, cell-based, ATP luminescence, mouse fibroblasts (AID 2010); type: functional;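 note: cells exposed to compound for about 90 hours before reading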
cells = type: functional

T2 sequence (P10635 whole entry): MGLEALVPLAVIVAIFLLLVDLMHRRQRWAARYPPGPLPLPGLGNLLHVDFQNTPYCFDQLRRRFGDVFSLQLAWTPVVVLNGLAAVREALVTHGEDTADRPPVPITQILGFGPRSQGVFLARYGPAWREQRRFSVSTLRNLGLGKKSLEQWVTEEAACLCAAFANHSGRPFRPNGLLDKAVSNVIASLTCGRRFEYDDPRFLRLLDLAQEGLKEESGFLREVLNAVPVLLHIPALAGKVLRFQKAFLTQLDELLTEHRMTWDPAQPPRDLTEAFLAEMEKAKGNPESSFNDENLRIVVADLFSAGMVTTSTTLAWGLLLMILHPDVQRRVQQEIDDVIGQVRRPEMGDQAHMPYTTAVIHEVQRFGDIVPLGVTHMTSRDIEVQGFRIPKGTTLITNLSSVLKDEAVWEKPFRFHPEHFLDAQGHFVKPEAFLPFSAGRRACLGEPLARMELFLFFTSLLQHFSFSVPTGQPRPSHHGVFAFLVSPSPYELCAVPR
T4 sequence (P49327 whole entry, the tested form may be a part): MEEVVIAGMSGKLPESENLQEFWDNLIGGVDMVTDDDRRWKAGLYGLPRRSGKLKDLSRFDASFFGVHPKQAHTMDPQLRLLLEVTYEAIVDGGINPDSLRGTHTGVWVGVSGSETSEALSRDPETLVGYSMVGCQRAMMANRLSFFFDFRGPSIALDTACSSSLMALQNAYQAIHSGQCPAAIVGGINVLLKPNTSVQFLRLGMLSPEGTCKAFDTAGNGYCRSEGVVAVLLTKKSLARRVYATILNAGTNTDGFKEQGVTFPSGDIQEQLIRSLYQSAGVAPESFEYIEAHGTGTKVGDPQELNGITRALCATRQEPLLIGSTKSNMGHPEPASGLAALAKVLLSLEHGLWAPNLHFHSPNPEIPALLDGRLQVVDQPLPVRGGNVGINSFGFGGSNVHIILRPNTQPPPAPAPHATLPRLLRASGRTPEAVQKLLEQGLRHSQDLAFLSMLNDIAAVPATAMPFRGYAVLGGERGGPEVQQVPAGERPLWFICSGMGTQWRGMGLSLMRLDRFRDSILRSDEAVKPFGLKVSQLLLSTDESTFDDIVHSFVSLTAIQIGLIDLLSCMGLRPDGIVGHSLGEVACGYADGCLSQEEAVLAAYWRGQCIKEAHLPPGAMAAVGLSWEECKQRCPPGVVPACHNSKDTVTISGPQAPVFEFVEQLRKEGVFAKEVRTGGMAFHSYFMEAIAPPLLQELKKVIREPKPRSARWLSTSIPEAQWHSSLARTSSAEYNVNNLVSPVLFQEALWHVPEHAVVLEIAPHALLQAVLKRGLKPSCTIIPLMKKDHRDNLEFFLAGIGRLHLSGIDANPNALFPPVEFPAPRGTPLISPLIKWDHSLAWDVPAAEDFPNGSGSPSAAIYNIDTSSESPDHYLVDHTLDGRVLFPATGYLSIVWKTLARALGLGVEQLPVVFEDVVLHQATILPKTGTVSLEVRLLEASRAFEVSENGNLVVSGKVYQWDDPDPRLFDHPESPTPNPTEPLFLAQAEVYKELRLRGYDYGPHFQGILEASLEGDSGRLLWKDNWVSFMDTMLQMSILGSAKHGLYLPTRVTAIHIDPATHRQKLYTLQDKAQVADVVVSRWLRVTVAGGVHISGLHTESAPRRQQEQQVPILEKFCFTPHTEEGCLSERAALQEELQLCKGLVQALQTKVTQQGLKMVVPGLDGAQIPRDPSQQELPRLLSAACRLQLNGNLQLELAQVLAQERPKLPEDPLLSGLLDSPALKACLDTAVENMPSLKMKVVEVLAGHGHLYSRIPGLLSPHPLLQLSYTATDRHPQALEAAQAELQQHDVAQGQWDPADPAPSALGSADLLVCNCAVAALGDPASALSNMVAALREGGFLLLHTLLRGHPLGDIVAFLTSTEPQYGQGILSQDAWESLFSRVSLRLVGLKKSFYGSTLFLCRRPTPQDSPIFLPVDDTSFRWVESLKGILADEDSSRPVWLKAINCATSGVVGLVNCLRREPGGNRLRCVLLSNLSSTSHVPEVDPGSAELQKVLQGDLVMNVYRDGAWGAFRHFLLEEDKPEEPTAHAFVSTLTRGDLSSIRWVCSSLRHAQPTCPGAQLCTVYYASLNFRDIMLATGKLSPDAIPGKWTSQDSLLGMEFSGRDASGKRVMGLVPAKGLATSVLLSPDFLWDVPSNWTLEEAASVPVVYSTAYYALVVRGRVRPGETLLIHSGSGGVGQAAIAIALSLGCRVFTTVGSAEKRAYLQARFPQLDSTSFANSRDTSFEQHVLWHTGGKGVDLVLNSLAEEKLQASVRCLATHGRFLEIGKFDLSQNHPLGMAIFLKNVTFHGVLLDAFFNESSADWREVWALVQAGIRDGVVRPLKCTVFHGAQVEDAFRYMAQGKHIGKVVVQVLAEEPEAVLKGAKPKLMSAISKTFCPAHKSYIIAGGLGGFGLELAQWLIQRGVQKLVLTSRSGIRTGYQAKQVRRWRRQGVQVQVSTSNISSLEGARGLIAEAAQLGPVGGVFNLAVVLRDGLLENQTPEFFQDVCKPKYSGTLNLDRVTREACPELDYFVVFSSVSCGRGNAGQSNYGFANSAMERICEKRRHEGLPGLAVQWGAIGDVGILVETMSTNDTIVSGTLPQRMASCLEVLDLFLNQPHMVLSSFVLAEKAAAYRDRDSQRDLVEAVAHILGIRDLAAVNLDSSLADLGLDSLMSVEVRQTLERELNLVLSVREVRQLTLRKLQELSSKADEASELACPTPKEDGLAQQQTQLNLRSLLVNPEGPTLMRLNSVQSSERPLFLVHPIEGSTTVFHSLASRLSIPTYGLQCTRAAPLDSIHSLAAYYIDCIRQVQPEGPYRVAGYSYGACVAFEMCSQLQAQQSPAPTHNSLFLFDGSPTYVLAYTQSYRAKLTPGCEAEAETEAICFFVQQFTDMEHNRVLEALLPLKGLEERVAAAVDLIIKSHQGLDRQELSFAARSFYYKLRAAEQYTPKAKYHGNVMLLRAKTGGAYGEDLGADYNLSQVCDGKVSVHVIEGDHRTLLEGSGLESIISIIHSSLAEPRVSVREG
Sequence of Cytochrome P450 2C9 (P11712 whole entry): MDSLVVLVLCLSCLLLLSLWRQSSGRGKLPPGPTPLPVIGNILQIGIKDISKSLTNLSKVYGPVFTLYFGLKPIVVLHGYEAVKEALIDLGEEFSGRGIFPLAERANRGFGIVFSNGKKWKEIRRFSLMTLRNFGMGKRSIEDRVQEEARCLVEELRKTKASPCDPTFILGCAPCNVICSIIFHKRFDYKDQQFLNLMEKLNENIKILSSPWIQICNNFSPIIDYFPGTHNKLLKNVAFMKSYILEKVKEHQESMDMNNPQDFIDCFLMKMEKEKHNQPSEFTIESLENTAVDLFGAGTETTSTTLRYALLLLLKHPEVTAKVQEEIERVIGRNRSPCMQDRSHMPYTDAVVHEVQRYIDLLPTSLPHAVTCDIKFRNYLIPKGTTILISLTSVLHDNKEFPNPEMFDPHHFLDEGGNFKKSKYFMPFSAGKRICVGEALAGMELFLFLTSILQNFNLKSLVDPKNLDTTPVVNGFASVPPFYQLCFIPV
Sequence of Cytochrome P450 2C19 (P33261 whole entry): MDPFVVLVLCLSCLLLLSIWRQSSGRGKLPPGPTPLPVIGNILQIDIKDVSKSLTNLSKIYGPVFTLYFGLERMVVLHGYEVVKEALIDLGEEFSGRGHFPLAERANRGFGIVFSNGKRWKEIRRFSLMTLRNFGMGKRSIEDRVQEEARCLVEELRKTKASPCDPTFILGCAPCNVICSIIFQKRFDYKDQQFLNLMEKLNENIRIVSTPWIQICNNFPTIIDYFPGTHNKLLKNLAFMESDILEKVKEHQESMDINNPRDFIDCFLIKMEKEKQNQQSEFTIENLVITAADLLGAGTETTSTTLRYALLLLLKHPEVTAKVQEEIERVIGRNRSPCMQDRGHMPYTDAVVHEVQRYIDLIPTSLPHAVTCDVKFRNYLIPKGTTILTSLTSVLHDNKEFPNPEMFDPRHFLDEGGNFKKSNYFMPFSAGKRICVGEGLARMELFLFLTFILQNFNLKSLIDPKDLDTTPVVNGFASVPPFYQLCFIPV
Sequence of G-protein coupled receptor 55 (Q9Y2T6 whole entry): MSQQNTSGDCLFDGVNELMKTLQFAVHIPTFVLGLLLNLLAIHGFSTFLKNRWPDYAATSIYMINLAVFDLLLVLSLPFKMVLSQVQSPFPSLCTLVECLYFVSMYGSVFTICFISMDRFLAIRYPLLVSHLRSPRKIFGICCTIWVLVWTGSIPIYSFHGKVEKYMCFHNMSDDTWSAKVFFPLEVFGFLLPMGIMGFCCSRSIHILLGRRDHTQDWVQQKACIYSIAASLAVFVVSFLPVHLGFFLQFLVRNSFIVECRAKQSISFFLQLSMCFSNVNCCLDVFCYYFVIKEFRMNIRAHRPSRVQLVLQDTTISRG

Structure (SMILES): c1ccc(CCNc2ncnc3ccccc23)cc1
- AC50 (INS1): 1.05 µM (active)
- IC50 [1]: > 80 µM (inactive)

Structure (SMILES): COc1ccccc1N1CCN(C(c2cccs2)c2nnnn2C2CCCC2)CC1 (stereo unspecified)
- EC50 [2]: 6.33 µM (active)

Structure (SMILES): CCOC(=O)c1cnc2c(C(F)(F)F)cccc2c1N1CCOCC1
- IC50 [3]: 13.5 µM (active)

Structure (SMILES): CCCn1nnnc1NC(=O)COc1ccc(Cl)cc1C
- AC50 (Cytochrome P450 2D6 [4]): 25.1 µM (inconclusive)
- CC50 [5]: 34.5 µM (active)

Structure (SMILES): CC1CCN(C(=O)CCCOc2cc(=O)n(C)c3ccccc23)CC1
- IC50 [1]: > 80 µM (inactive)

Structure (SMILES): O=S(=O)(Nc1nc2cc3c(cc2nc1Cl)OCCO3)c1ccccc1
- IC50 (Aminopeptidase N): 66.8 µM (active)

Structure (SMILES): COc1ccc(C(C(=O)NC2CCCCC2)N(C(=O)c2sc(C)nc2C)c2ccc(C(C)=O)cc2)cc1 (stereo unspecified)
- AC50 (Cytochrome P450 2D6 [6]): inconclusive

Structure (SMILES): CCN1C(=O)[C@H]2[C@@H]3[C@H](O)C=CC(=O)[C@H]3CC[C@H]2C1=O
- AC50 (Cytochrome P450 2D6 [6]): inconclusive

Structure (SMILES): COc1cc(C(=O)NC(=S)Nc2ccc3oc(=O)ccc3c2)cc(OC)c1OC
- AC50 (Cytochrome P450 2D6 [6]): inconclusive

Structure (SMILES): O=C(NNS(=O)(=O)c1ccc(Cl)cc1)c1cc(-c2ccccc2)nc2ccccc12
- IC50 (Aminopeptidase N): 36.5 µM (active)

Structure (SMILES): CN1C(=O)CC(c2ccco2)Sc2ccccc21 (stereo unspecified)
- IC50 [1]: > 80 µM (inactive)

Structure (SMILES): O=C(O)C1CCN(c2c([N+](=O)[O-])cc(C(F)(F)F)cc2[N+](=O)[O-])CC1
- AC50 (Cytochrome P450 2D6 [6]): inconclusive
- AC50 (Cytochrome P450 2C9): 35.5 µM (inconclusive)
- AC50 (Cytochrome P450 2C19): 14.1 µM (inconclusive)

Structure (SMILES): Cc1ccccc1N(CC(=O)NC1CCCC1)C(=O)C[S+]([O-])CC(=O)Nc1ccc2c(c1)OCO2 (stereo unspecified)
- IC50 (Aminopeptidase N): 63.9 µM (active)

Structure (SMILES): Cn1c(SCC(=O)N2CCCc3ccccc32)nc2ccccc2c1=O
- IC50 (HEK293 [7]): 5.85 µM (active)
- AC50 [8]: 4.04 µM (active)
- AC50 [9]: 43.6 µM (active)
- EC50 (HEK293 [10]): 4.77 µM (active)
- IC50 (HEK293 [11]): 13.5 µM (active)
- AC50 [12]: 3.46 µM (active)
- IC50 (HEK293 [13]): 6.57 µM (active)

Structure (SMILES): Nc1ccc(N=Nc2ccccc2O)c(N)c1
- CC50 [5]: > 40 µM (active)

Structure (SMILES): O=C(NCc1ccc2c(c1)OCO2)c1cc([N+](=O)[O-])ccc1N1CCOCC1
- IC50 (Fatty acid synthase [14]): 11.5 µM (active)
- IC50 (Fatty acid synthase [15]): 8.35 µM (active)
- IC50 [16]: > 80 µM (inactive)

Structure (SMILES): COCCn1c(C)cc2c(c1=O)C(c1ccccc1F)C(C#N)=C(N)O2 (stereo unspecified)
- AC50 (Cytochrome P450 2D6 [6]): inconclusive
- AC50 (Cytochrome P450 2C9): 17.8 µM (inconclusive)

Structure (SMILES): CC12CCC(C/C1=N\NC1=NC(=O)/C(=C\c3cccc(Br)c3)S1)C2(C)C (stereo unspecified)
- AC50 [17]: 1.95 µM (active)
- EC50 (Streptococcus): 2.89 µM (active)
- EC50 [18]: 0.343 µM (active)
- CC50 [5]: > 40 µM (active)
- EC50 (Streptokinase A): > 150 µM (not active)

Structure (SMILES): O=C(N/N=C1\CCC\C1=C(/O)C(F)(F)F)c1cccc(O)c1
- CC50 [5]: 32.2 µM (active)

Structure (SMILES): N=C(N)Nc1nc(-c2ccccc2)c2ccccc2n1
- AC50 [19]: 16.6 µM (active)
- CC50 [20]: 21.2 µM (active)
- EC50 [21]: 0.142 µM (active)
- EC50 [22]: > 60 µM (not active)
- IC50 (cells): 34.5 µM (active)

From ChEMBL document CHEMBL1201862, “PubChem BioAssay data set” (2004)
